Legend:
Atrogin-1/MAFbx [1] = experiment: Western Blotting analysis of Atrogin-1/MAFbx protein levels in C2C12 myotubes (atrophy induced by dexamethasone or TNFα); assay type: cell-based, murine; conditions: for effect on Dexa-induced expression of Atrogin-1/MAFbx (protein) / expression of Atrogin-1/MAFbx (protein): C2C12 myotubes; for effect on Dexa-induced expression of Atrogin-1/MAFbx (protein): modulator(s) added 1 hour before Dexa 100 μM for 48 hours, 2 μM CYM5520, 1 μM VPC23019, 2 μM W146, 2 μM FTY720; for expression of Atrogin-1/MAFbx (protein): modulator(s) in absence of Dexa, 2 μM CYM5520, 1 μM VPC23019, 2 μM W146
Description: (§1) C2C12 murine skeletal myoblasts obtained from the American Type Culture Collection (ATCC, Manassas, VA, USA) were cultured in Dulbecco's Modified Eagle's Medium (DMEM) (Sigma, Milan, Italy) with L-glutamine 1%, penicillin/streptomycin 1% (Sigma, Milan, Italy) and Foetal Bovine Serum 10% (FBS) (Sigma, Milan, Italy). For experiments with the myotubes, myoblasts were seeded in 6-wells plates at a concentration of 0.2×10^6 cells/ml. When the cells reached 90-100% confluence (72 hours after seeding), the medium was replaced with the differentiation medium (DM), consisting of DMEM containing antibiotics, glutamine and horse serum (HS) 2% (Sigma, Milan, Italy). The medium was changed every 24-48 hours. The complete cell differentiation was observed after 4-6 days of incubation with HS 2%. The C2C12 skeletal myotubes were incubated for 24-48 hours with the indicated compounds: Sphingosine 1-phosphate (S1P) 2 μM, or different concentration of CYM5520, VPC23019 and/or W146 (in the concentration range between 0.25 and 2 μM). CYM5478, TY52156 and siRNA specific for S1PR3 (NCBI ref NM_010101.4, sequence 5′-[…]-3 ′1118-1139 SEQ ID NO: 1, same size random oligonucleotides were used as negative control SCR-siRNA) were used in some of the experiments. The agonists/antagonists or S1PR3-siRNA or SCR-siRNA were added to the culture medium for 1 hour prior to treatment of the myotubes with dexamethasone (Dexa) 100 μM for 48 hours.
The Western Blotting analysis was carried out for determining the protein levels of Atrogin-1/MAFbx in C2C12 myotubes. The cells were lysed at 4° C. with RIPA buffer containing TrisHCl 50 mM, pH 7.5, NaCl 120 mM, EDTA 1 mM, EGTA 6 mM, Na4P2O7 15 mM, NaF 20 mM, 1% of cocktail Nonidet and protease inhibitor (1.04 mM AEBSF, 0.08 mM of aprotinin, leupeptin 0.02 mM, bestatin 0.04 mM, pepstatin A […], E-64 […] (Sigma, St. Louis, MO, USA). The lysates were centrifuged at 600× g for 6 min at 4° C., and the proteins concentration was measured by using the Bradford assay (Bio-Rad, Hercules, CA). Aliquots containing 40 μg of proteins were diluted in loading buffer 2× (10% SDS, 50% glycerol, 0.25% bromophenol blue and 0.25 M Tris-HCl, pH 6.8) and boiled at 90° C. for 10 minutes to denature proteins. The samples were subjected to SDS-polyacrylamide 10-12% (SDS-PAGE) gel electrophoresis and to Western blotting on Amersham Hybond p 0.45 PVDF membrane (GE Healthcare, Buckinghamshire, UK). […] After blocking, the membranes were washed in PBST and then incubated overnight with a 1:1000 dilution of the primary antibody comprising rabbit polyclonal antibody with Atrogin-1/MAFbx. After sufficient washings with PBST, the membranes were incubated for 1 hour at room temperature with secondary antibodies conjugated with goat anti-rabbit or goat anti-mouse horseradish peroxidase (Santa Cruz, Texas, USA) at dilution 1:10.000/1:5.000. Following three washings with PBST, the bands corresponding to the immunoreactive proteins were seen by using reagents for the detection of the Western blotting ECL (GE Healthcare, Buckinghamshire, UK); and finally, the membranes were exposed to a high performance chemiluminescence film (GE Healthcare, Buckinghamshire, UK). The identity of the bands on the Western Blot membranes was confirmed by comparing them with a high-precision marker having a known molecular weight (BioRad, Hercules, CA). Densitometric analysis of the bands was performed by using NIH IMAGE J (ImageJ software, Bethesda, MD, USA) and Quantity-One (imaging and analysis software from Bio-Rad Laboratories, Hercules, CA) and the intensity of the band was indicated as a relative percentage (mean and standard deviation from the mean), obtained by calculating the ratio of the specific protein with respect to the β-actin intensity and normalizing it to the control, set to 1.
To test the role of exogenous S1Ps, the terminally differentiated myotubes were treated with the bioactive lipid.

C2C12 myotubes [2] = experiment: Phase contrast microscopy of cellular morphology of C2C12 myotubes (diameter, number of myonuclei); assay type: cell-based, murine; conditions: for effect on atrophic morphology (myotube diameter, number of myonuclei): modulator(s) before Dexa 100 μM for 48 hours
Description: as §1
The images shown are representative of n. 5-6 observation frames for each treatment.
The C2C12 myoblasts were let to grow on a coverslip and when confluent they were moved on a differentiated medium for 4 days.
The C2C12 myotubes were grown on a coverslip and, when confluent, were moved onto a medium for the differentiation for 4 days. The cells were treated with the above reported combination of the three S1PR modulators before being incubated with Dexa for 48 hours. Then, the cells were fixed and observed with microscope.

C2C12 myotubes [3] = conditions: cited from earlier work
Atrogin-1/MAFbx [4] = conditions: C2C12 myotubes, cited from earlier work
S1PR3 receptor = experiment: Silencing of the expression of the S1PR3 receptor by siRNA in C2C12 myotubes; assay type: cell-based; conditions: incubation with siRNA specific for mouse S1PR3
Description: C2C12 murine skeletal myoblasts obtained from the American Type Culture Collection (ATCC, Manassas, VA, USA) were cultured in Dulbecco's Modified Eagle's Medium (DMEM) (Sigma, Milan, Italy) with L-glutamine 1%, penicillin/streptomycin 1% (Sigma, Milan, Italy) and Foetal Bovine Serum 10% (FBS) (Sigma, Milan, Italy). For experiments with the myotubes, myoblasts were seeded in 6-wells plates at a concentration of 0.2×10^6 cells/ml. When the cells reached 90-100% confluence (72 hours after seeding), the medium was replaced with the differentiation medium (DM), consisting of DMEM containing antibiotics, glutamine and horse serum (HS) 2% (Sigma, Milan, Italy). The medium was changed every 24-48 hours. The complete cell differentiation was observed after 4-6 days of incubation with HS 2%. The C2C12 skeletal myotubes were incubated for 24-48 hours with the indicated compounds: Sphingosine 1-phosphate (S1P) 2 μM, or different concentration of CYM5520, VPC23019 and/or W146 (in the concentration range between 0.25 and 2 μM). CYM5478, TY52156 and siRNA specific for S1PR3 (NCBI ref NM_010101.4, sequence 5′-CGGGGUCCUCUGCAAGUGA-3 ′1118-1139 SEQ ID NO: 1, same size random oligonucleotides were used as negative control SCR-siRNA) were used in some of the experiments. […]

[5] = composition of the invention with CYM5520 replaced by the named compound (2 μM), in the presence of Dexa

Row | Compound | effect on Dexa-induced expression of Atrogin-1/MAFbx (protein) (Atrogin-1/MAFbx [1]) | expression of Atrogin-1/MAFbx (protein) (Atrogin-1/MAFbx [1]) | effect on atrophic morphology (myotube diameter, number of myonuclei) (C2C12 myotubes [2]; C2C12 myotubes) | other results
1 | Cc1cc(C(=O)Cn2cc(C(F)(F)F)ccc2=O)c(C)n1Cc1ccccc1 [CYM5478] | – | – | – | effect on expression of Atrogin-1/MAFbx (Atrogin-1/MAFbx [1]; [5]): effect comparable with that obtained with the combination of the invention; effect on cellular morphology (C2C12 myotubes [2]; [5]): effect comparable with that obtained with the combination of the invention
2 | Cc1cc(C(=O)Cn2cc(C#N)ccc2=O)c(C)n1Cc1ccccc1 [CYM5520] | only slightly counteracted the GC effect | no increase was observed | not significantly reduced | –
3 | CCCCCCCCCCCCC/C=C/[C@@H](O)[C@@H](N)COP(=O)(O)O [Combination S1P, Sphingosine 1-phosphate] | – | – | – | cell morphology and number of nuclei (C2C12 myotubes [3]; Dexa-treated cells in the presence of S1P, state of the art): no significant changes; morphological parameters of the myotubes (diameter and number of myonuclei) (C2C12 myotubes [3]; S1P without Dexa, FIG. 1B, 1C state of the art): slightly change; Atrogin-1/MAFbx level (Atrogin-1/MAFbx [4]; S1P (1 μM) before Dexa 100 μM for 48 hours, FIG. 1 state of the art): reduce the Atrogin-1/MAFbx level, restoring the basal levels; expression of Atrogin-1/MAFbx (Atrogin-1/MAFbx [4]; S1P (1 μM) without Dexa, FIG. 1A state of the art): significantly increase
4 | CCCCCCc1cccc(NC(=O)[C@H](N)CCP(=O)(O)O)c1 [Combination W146] | did not counteract the effect of Dexa | did not induce | not significantly reduced | –
5 | CCCCCCCCc1ccc(CCC(N)(CO)CO)cc1 [FTY720] | not affected | – | – | formation of autophagic vesicles (morphological analysis) (C2C12 myotubes [2]; C2C12 myotubes, FIG. 3C): promote the formation of small autophagic vesicles
6 | CCCCCCCCc1cccc(NC(=O)C(N)COP(=O)(O)O)c1 (stereo not shown) [VPC23019, [2-amino-2-(3-octyl-phenylcarbamoyl)-ethyl] ester of phosphoric acid] | did not counteract the effect of Dexa | did not induce | not significantly reduced | –
7 | S1PR3-siRNA: double-stranded RNA of 21 nucleotides, SEQ ID NO:1, silencing the expression of the S1PR3 receptor (CGGGGUCCUCUGCAAGUGA; combined with other compounds, further chemistry not given here) [Combination S1PR3-siRNA] | – | – | – | reduction of expression of the S1PR3 protein (S1PR3 receptor): 40%; reduction of expression of the S1PR3 protein (S1PR3 receptor; listed as SEQ ID NO:1): about 40%

Reference: US12357622B2, “Pharmaceutical composition of S1PR modulators” (UNIVERSITA DEGLI STUDI DI FIRENZE, priority 2019, dated 2025)
